Patent US20100168112A1, “2-Substituted and 4-substituted aryl nitrone compounds” (RENOVIS, INC., priority 2004, published 2010)

Tests used:
[1] = Plasma protein binding (equilibrium dialysis), rat plasma; assay type: in vitro ADME; settings: 1 μg/mL in plasma, dialysis vs phosphate buffer pH 7.4 overnight at 37° C., read-out: Plasma Protein Binding % Bound Rat (converted)
Procedure: (§1) Nitrone compounds of this invention were individually dissolved in DMSO to make a stock solution of 1 mg/mL. The compound was spiked into plasma to achieve a final concentration of 1 μg/mL. Spiked plasma and phosphate buffer (0.1M, pH 7.4), 200 μl each, were added to the opposite sides of the membrane in a 96-well equilibrium dialyzer. The dialyzer plate was then covered and equilibrated overnight at 37° C. on an orbital shaker. Aliquots were taken from the plasma and the buffer compartments and prepared by adding blank plasma to samples from the buffer compartments and drug-free phosphate buffer to samples from the plasma compartments to eliminate the matrix effects. The samples were extracted using protein precipitation procedure by adding CH3CN. The samples were analyzed using a LC/MS/MS method. The percentage of free and bound nitrone compound were calculated according to the following formula:
(§2) %Free=[Free Drug/Total Drug]*100=[(Peak Area)buffer/(Peak Area)serum]*100%Bound=100%Free

[2] = Plasma protein binding (equilibrium dialysis), human plasma; assay type: in vitro ADME; settings: 1 μg/mL in plasma, dialysis vs phosphate buffer pH 7.4 overnight at 37° C., read-out: Plasma Protein Binding % Bound Human (converted)
Procedure: as §1, §2

[3] = DPPH free radical-scavenging/antioxidant assay; assay type: biochemical; settings: 50 μM DPPH in 80% methanol; 24 h time point; read-out: EC50 (concentration at which a compound reduces by 50% the peak absorbance of DPPH at 520 nm)
How it was run: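 Compounds diluted 100-fold from DMSO stocks into 50 μM DPPH in 80% methanol; absorbance at 520 nm followed kinetically to steady state, with the 24 h reading used. EC50 interpolated from OD520 versus concentration; Trolox, BHA, PBN and S-PBN as positive controls, DMSO as vehicle.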

fraction unbound at 1 μg/mL [1]	fraction unbound at 1 μg/mL [2]	EC50 [3] [mM]	Structure (SMILES)
0.898	0.726	0.5 to 1	CC(C)(C)/[N+]([O-])=C/c1ccccc1S(C)(=O)=O [Compound 66, N-tert-Butyl-C-(2-methanesulfonylphenyl)nitrone]
0.999	0.826	> 1	CC(C)(C)/[N+]([O-])=C/c1ccc(S(C)(=O)=O)cc1 [Compound 62, N-tert-Butyl-C-[4-(methanesulfonyl)phenyl]nitrone]
0.811	0.697	0.5 to 1	CCS(=O)(=O)c1ccc(/C=[N+](\[O-])C(C)(C)C)c(S(=O)(=O)CC)c1 [Compound 64, N-tert-Butyl-C-(2,4-bis-ethanesulfonylphenyl)nitrone]
0.741	0.867	0.5 to 1	CC(C)(C)/[N+]([O-])=C/c1ccc(S(C)(=O)=O)cc1S(C)(=O)=O [Compound 63, N-tert-Butyl-C-(2,4-bis-methanesulfonylphenyl)nitrone]

Further lines, the molecule ahead of its results:

Structure (SMILES)	fraction unbound at 1 μg/mL [1]	fraction unbound at 1 μg/mL [2]	EC50 [3] [mM]
CC(C)(C)/[N+]([O-])=C/c1ccc(S(=O)(=O)N2CCOCC2)cc1 [Compound 23, N-(tert-Butyl)-C-[4-(morpholine-4-sulfonyl)phenyl]nitrone]	0.782	0.8	> 1
CC(C)(C)/[N+]([O-])=C/c1ccc(S(=O)(=O)Nc2cccnc2)cc1 [Compound 26, N-(tert-Butyl)-C-[4-(pyridin-3-ylsulfamoyl)phenyl]nitrone]	0.01	0.238	> 1
CC(C)(C)/[N+]([O-])=C/c1ccc(S(N)(=O)=O)cc1 [Compound 20, N-(tert-Butyl)-C-[4-(sulfamoyl)phenyl]nitrone]	0.976	1	> 1
